The target of this assay is Aldo-keto reductase family 1 member B1 (Oryctolagus cuniculus) (UniProt P15122). The assay is described as follows: Binding affinity towards rabbit aldose reductase.

Molecules are shown by their SMILES.

As a reminder, the Ki is the dissociation constant of the complex between target and ligand, obtained from inhibition or displacement. Lower therefore signals tighter binding. `CN(C)S(=O)(=O)c1ccc2oc3ccc(C(=O)O)cc3c(=O)c2c1` [7-Dimethylsulfamoyl-9-oxo-9H-xanthene-2-carboxylic acid] registered a Ki of 400 nM. This counts as sub-micromolar.

For the origin of these results see BindingDB's records for doi:10.1021/jm00185a027 (1981).
